± gives the expanded uncertainty stated by the source.
Assays:
[1] = activity coefficient (dimensionless); of the first substance listed, at infinite dilution; xn = mol fraction of the nth substance listed; details: 101 kPa, Liquid, Chromatography, x1 = 0
[2] = 101.33 kPa, Liquid

In the case of CC#N [acetonitrile] + CCCC[N+]1(C)CCCC1.N#CN=C=[N-], the activity coefficient ([1]; 318.15 K) is reported as 0.67 ± 0.045, the activity coefficient ([1]; 323.15 K) is reported as 0.676 ± 0.046 and the activity coefficient ([1]; 333.15 K) is reported as 0.68 ± 0.046. It also gave an activity coefficient ([1]; 343.15 K) of 0.684 ± 0.046 and an activity coefficient ([1]; 353.15 K) of 0.687 ± 0.046.

With COC(C)=O [methyl ethanoate] + CCCC[N+]1(C)CCCC1.N#CN=C=[N-] the activity coefficient ([1]; 318.15 K) was 1.51 ± 0.1, the activity coefficient ([1]; 323.15 K) was 1.53 ± 0.1 and the activity coefficient ([1]; 333.15 K) was 1.56 ± 0.1. The activity coefficient ([1]; 343.15 K) was 1.59 ± 0.11 and the activity coefficient ([1]; 353.15 K) was 1.63 ± 0.11.

Molecule FC(F)(F)C(Cl)Br (configuration not stated) [1-bromo-1-chloro-2,2,2-trifluoroethane] + CCCC[N+]1(C)CCCC1.N#CN=C=[N-] has an activity coefficient ([1]; 318.15 K) of 0.568 ± 0.041, an activity coefficient ([1]; 323.15 K) of 0.606 ± 0.042 and an activity coefficient ([1]; 333.15 K) of 0.694 ± 0.047. It also gave an activity coefficient ([1]; 343.15 K) of 0.776 ± 0.051 and an activity coefficient ([1]; 353.15 K) of 0.866 ± 0.055.

COC(=O)OC [dimethyl carbonate] + CCCC[N+]1(C)CCCC1.N#CN=C=[N-] showed an activity coefficient ([1]; 318.15 K) of 1.26 ± 0.08, an activity coefficient ([1]; 323.15 K) of 1.27 ± 0.08 and an activity coefficient ([1]; 333.15 K) of 1.29 ± 0.08. The activity coefficient ([1]; 343.15 K) was 1.31 ± 0.09 and the activity coefficient ([1]; 353.15 K) was 1.33 ± 0.09.

Molecule COC(C)(C)C [2-methoxy-2-methylpropane] + CCCC[N+]1(C)CCCC1.N#CN=C=[N-] has an activity coefficient ([1]; 318.15 K) of 6.04 ± 0.41, an activity coefficient ([1]; 323.15 K) of 6.13 ± 0.42 and an activity coefficient ([1]; 333.15 K) of 6.29 ± 0.43. For the same molecule, the activity coefficient ([1]; 343.15 K) was 6.4 ± 0.44 and the activity coefficient ([1]; 353.15 K) was 6.53 ± 0.45.

CO [methanol] + CCCC[N+]1(C)CCCC1.N#CN=C=[N-] showed an activity coefficient ([1]; 318.15 K) of 0.344 ± 0.032, an activity coefficient ([1]; 323.15 K) of 0.344 ± 0.032 and an activity coefficient ([1]; 333.15 K) of 0.345 ± 0.032. The activity coefficient ([1]; 343.15 K) was 0.347 ± 0.032 and the activity coefficient ([1]; 353.15 K) was 0.348 ± 0.032.

In the case of CC1CCCCC1 [methylcyclohexane] + CCCC[N+]1(C)CCCC1.N#CN=C=[N-], the activity coefficient ([1]; 318.15 K) is reported as 32.5 ± 2.2, the activity coefficient ([1]; 323.15 K) is reported as 31.7 ± 2.2 and the activity coefficient ([1]; 333.15 K) is reported as 30 ± 2.1. It also gave an activity coefficient ([1]; 343.15 K) of 28.4 ± 1.9 and an activity coefficient ([1]; 353.15 K) of 27.1 ± 1.9.

Molecule CCCC[N+]1(C)CCCC1.N#CN=C=[N-] [1-butyl-1-methylpyrrolidinium dicyanamide] has a mass density ([2]; 283.15 K) of 1021.93 ± 0.57 kg/m3, a mass density ([2]; 293.15 K) of 1016.26 ± 0.55 kg/m3 and a mass density ([2]; 303.15 K) of 1010.64 ± 0.53 kg/m3. The mass density ([2]; 313.15 K) was 1005.08 ± 0.51 kg/m3, the mass density ([2]; 323.15 K) was 999.56 ± 0.5 kg/m3 and the mass density ([2]; 333.15 K) was 994.1 ± 0.51 kg/m3. For the same molecule, the mass density ([2]; 343.15 K) was 988.69 ± 0.53 kg/m3.

Molecule CCC(C)=O [butanone] + CCCC[N+]1(C)CCCC1.N#CN=C=[N-] has an activity coefficient ([1]; 318.15 K) of 1.26 ± 0.08, an activity coefficient ([1]; 323.15 K) of 1.27 ± 0.08 and an activity coefficient ([1]; 333.15 K) of 1.32 ± 0.09. For the same molecule, the activity coefficient ([1]; 343.15 K) was 1.33 ± 0.09 and the activity coefficient ([1]; 353.15 K) was 1.35 ± 0.09.

Molecule CCc1ccccc1 [ethylbenzene] + CCCC[N+]1(C)CCCC1.N#CN=C=[N-] has an activity coefficient ([1]; 318.15 K) of 3.52 ± 0.24, an activity coefficient ([1]; 323.15 K) of 3.55 ± 0.24 and an activity coefficient ([1]; 333.15 K) of 3.6 ± 0.25. It also gave an activity coefficient ([1]; 343.15 K) of 3.65 ± 0.25 and an activity coefficient ([1]; 353.15 K) of 3.69 ± 0.25.

For Cc1cccc(C)c1 [1,3-dimethylbenzene] + CCCC[N+]1(C)CCCC1.N#CN=C=[N-], the activity coefficient ([1]; 318.15 K) was 3.46 ± 0.24, the activity coefficient ([1]; 323.15 K) was 3.5 ± 0.24 and the activity coefficient ([1]; 333.15 K) was 3.56 ± 0.24. The activity coefficient ([1]; 343.15 K) was 3.61 ± 0.25 and the activity coefficient ([1]; 353.15 K) was 3.67 ± 0.25.

CCO [ethanol] + CCCC[N+]1(C)CCCC1.N#CN=C=[N-] showed an activity coefficient ([1]; 318.15 K) of 0.55 ± 0.04, an activity coefficient ([1]; 323.15 K) of 0.545 ± 0.04 and an activity coefficient ([1]; 333.15 K) of 0.538 ± 0.039. For the same molecule, the activity coefficient ([1]; 343.15 K) was 0.53 ± 0.039 and the activity coefficient ([1]; 353.15 K) was 0.525 ± 0.039.

In the case of CCCO [propan-1-ol] + CCCC[N+]1(C)CCCC1.N#CN=C=[N-], the activity coefficient ([1]; 318.15 K) is reported as 0.688 ± 0.046, the activity coefficient ([1]; 323.15 K) is reported as 0.68 ± 0.046 and the activity coefficient ([1]; 333.15 K) is reported as 0.668 ± 0.045. It also gave an activity coefficient ([1]; 343.15 K) of 0.656 ± 0.045 and an activity coefficient ([1]; 353.15 K) of 0.647 ± 0.044.

Work on CC(C)O [propan-2-ol] + CCCC[N+]1(C)CCCC1.N#CN=C=[N-] yielded an activity coefficient ([1]; 318.15 K) of 0.771 ± 0.05, an activity coefficient ([1]; 323.15 K) of 0.761 ± 0.05 and an activity coefficient ([1]; 333.15 K) of 0.746 ± 0.049. It also gave an activity coefficient ([1]; 343.15 K) of 0.733 ± 0.049 and an activity coefficient ([1]; 353.15 K) of 0.724 ± 0.048.

With ClC(Cl)(Cl)Cl [tetrachloromethane] + CCCC[N+]1(C)CCCC1.N#CN=C=[N-] the activity coefficient ([1]; 318.15 K) was 2.04 ± 0.14, the activity coefficient ([1]; 323.15 K) was 2.11 ± 0.14 and the activity coefficient ([1]; 333.15 K) was 2.25 ± 0.15. It also gave an activity coefficient ([1]; 343.15 K) of 2.38 ± 0.16 and an activity coefficient ([1]; 353.15 K) of 2.5 ± 0.17.
